Test results from publication PMC3291892 (Bioconjugate Chemistry, 2012).

How the values were obtained:
hA3AR [1] = biological target: T1, hA3AR (Homo sapiens, UniProt P0DMS8); type: cell-based; conditions: at 10 μM; relative to NECA 10 μM
T1 sequence (P0DMS8 1-318): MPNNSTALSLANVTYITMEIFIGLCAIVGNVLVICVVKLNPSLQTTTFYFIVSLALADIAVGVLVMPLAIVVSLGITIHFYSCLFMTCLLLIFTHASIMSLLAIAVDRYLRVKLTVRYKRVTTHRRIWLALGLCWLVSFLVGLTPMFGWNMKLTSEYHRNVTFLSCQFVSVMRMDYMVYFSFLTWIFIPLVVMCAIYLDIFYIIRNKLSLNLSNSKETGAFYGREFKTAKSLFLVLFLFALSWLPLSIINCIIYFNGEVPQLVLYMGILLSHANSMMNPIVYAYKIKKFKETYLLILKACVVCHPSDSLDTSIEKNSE

hA3AR [2] = biological target: T1, hA3AR; assay: Radioligand binding at hA3AR; conditions: A3AR versus A1AR

Row | Molecule | A3AR efficacy in the functional assay (in words) (hA3AR [1]) | selectivity for A3AR in comparison to the A1AR (hA3AR [2]) [fold]
1 | CNC(=O)[C@@]12C[C@@H]1[C@@H](n1cnc3c(NCc4cccc(C#CCCCCCc5cn(-c6ccc(F)c([N+](=O)[O-])c6)nn5)c4)nc(Cl)nc31)[C@H](O)[C@@H]2O [Compound 14, (1S, 2R, 3S, 4R, 5S)-4-(2-Chloro-6-(3-(7-(1-(4-fluoro-3-nitrophenyl)-1H-1,2,3-triazol-4-yl)hept-1-ynyl)benzylamino)-9H-purin-9-yl)-2,3-dihydroxybicyclo[3.1.0]hexane-1-carboxylic acid-N-methylamide] | intermediate efficacy | 
2 | CNC(=O)[C@@]12C[C@@H]1[C@@H](n1cnc3c(NCc4cccc(C#CCCCc5cn(-c6ccc(F)c(N)c6)nn5)c4)nc(Cl)nc31)[C@H](O)[C@@H]2O [Compound 16, (1S, 2R, 3S, 4R, 5S)-4-(2-Chloro-6-(3-(5-(1-(4-fluoro-3-amino-phenyl)-1H-1,2,3-triazol-4-yl)pent-1-ynyl)benzylamino)-9H-purin-9-yl)-2,3-dihydroxybicyclo[3.1.0]hexane-1-carboxylic acid-N-methylamide] | intermediate efficacy | 
3 | C#CCNc1nc(Cl)nc2c1ncn2[C@H]1[C@H](O)[C@H](O)[C@]2(C(=O)NC)C[C@H]12 [Compound 31, (1S, 2R, 3S, 4R, 5S)-4-(2-Chloro-6-(prop-2-ynylamino)-9H-purin-9-yl)-2,3-dihydroxy-N-methylbicyclo[3.1.0]hexane-1-carboxamide] |  | 270
4 | (1S, 2R, 3S, 4R, 5S)-4-[2-Chloro-6-{3-(1,7-octadiynyl)}-9H-purin -9-yl]- 2, 3-dihydroxybicyclo[3.1.0]hexane-1-carboxylic acid N-methylamide [Compound 10] | intermediate efficacy | 
5 | (1S, 2R, 3S, 4R, 5S)-4-[2-Chloro-6-{3-(1,8-nonadiynyl)}-9H-purin -9-yl]- 2, 3-dihydroxybicyclo[3.1.0]hexane-1-carboxylic acid N-methylamide [Compound 11] | intermediate efficacy | 
